Data from ChEMBL document CHEMBL1143515, “Structure-activity relationships of 1'S-1'-acetoxychavicol acetate for inhibitory effect on NO production in lipopolysaccharide-activated mouse peritoneal macrophages” (Bioorg Med Chem Lett, 2005).
pIC50: −log10 of the molar value.

Legend:
Mus musculus [1] = species on record: Mus musculus; experiment: Percent inhibition of nitric oxide (NO) production in lipopolysaccharide activated mouse peritoneal macrophages at 100 uM of compound; format: functional
Mus musculus [2] = species on record: Mus musculus; experiment: Inhibitory concentration of compound on nitric oxide (NO) production in lipopolysaccharide activated mouse peritoneal macrophages; format: functional; details: for pIC50: read-out: IC50
[3] = Concentration with cytotoxic effect on mouse peritoneal macrophages

Compound	Inhibition (Mus musculus [1]) [%]	pIC50 (Mus musculus [2])	Cytotoxicity [3] [µM]	IC50 (Mus musculus [2]) [µg/mL]
C=CC(O)c1ccc(O)cc1 (configuration not stated)	-1	< 4.00		
C=CCc1ccc(O)c(OC)c1 [EUGENOL]	15	< 4.00		
C=C[C@@H](OC(C)=O)c1ccc(OC(C)=O)cc1		5.09		
C=C[C@H](OC(C)=O)c1ccc(OC(C)=O)c(OC)c1		4.96		
C=C[C@H](O)c1ccc(OC(C)=O)cc1	46	< 4.00		
C=CCc1ccc(O[C@@H]2O[C@H](CO)[C@@H](O)[C@H](O)[C@H]2O)cc1	6	< 4.00		
C=CCC(O)c1ccc(O)cc1 (configuration not stated)	13	< 4.00		
C=CC(OC(C)=O)c1ccc(OC(C)=O)cc1 (configuration not stated)		5.31		
COc1cc(/C=C/C(=O)O)cc(OC)c1O [SINAPINATE]	27	< 4.00		
O=C(O)/C=C/c1ccc(O)c(O)c1 [CAFFEIC ACID]	15	< 4.00		
C=CC(OC(=O)CC)c1ccc(OC(=O)CC)cc1 (configuration not stated)		4.52		
C=CC(OC(C)=O)c1cccc(OC(C)=O)c1 (configuration not stated)	20	< 4.00		
O=C(/C=C/c1ccc(O)c(O)c1)OCCc1ccccc1 [CAFFEIC ACID PHENETHYL ESTER]		4.82		
CCC(=O)Oc1ccc(C(CC)OC(=O)CC)cc1 (configuration not stated)		4.23		
C=CCc1ccc(OC(C)=O)cc1		4.19		
C=CCc1ccc(O)c(O)c1 [HYDROXYCHAVICOL]		4.82		
CC(=O)OC/C=C/c1ccc(OC(C)=O)cc1		4.72		
COc1ccc(/C=C/C(=O)O)cc1OC [O,O'-DIMETHYLCAFFEIC ACID]	1	< 4.00		
C=CC(OC)c1ccc(OC)cc1 (configuration not stated)	22	< 4.00		
C=CCc1ccc(OC)c(OC)c1 [METHYLEUGENOL]	1	< 4.00		
C=C[C@H](OC(C)=O)c1ccccc1	20	< 4.00		
O=C(O)/C=C/c1ccccc1O [O-COUMARIC ACID]	7	< 4.00		
C=CCC(OC(C)=O)c1ccc(OC(C)=O)cc1 (configuration not stated)		5.04		

Compound	Inhibition (Mus musculus [1]) [%]	pIC50 (Mus musculus [2])	Cytotoxicity [3] [µM]	IC50 (Mus musculus [2]) [µg/mL]
C=CC(OC(C)=O)c1cccc(O)c1 (configuration not stated)	25	< 4.00		
CCC(O)c1ccc(O)cc1 (configuration not stated)	11	< 4.00		
C=CC(O)c1ccccc1O (configuration not stated)	0	< 4.00		
C=C[C@H](O)c1ccccc1	19	< 4.00		
C=C[C@H](OC(C)=O)c1ccc(OC(C)=O)cc1 [1'-ACETOXYCHAVICOL ACETATE]		5.64		
CC[C@H](OC(C)=O)c1ccccc1	25	< 4.00		
C=CC(O)c1cccc(O)c1 (configuration not stated)	1	< 4.00		
N=C(N)NCCSSCCNC(=N)N [GUANIDINOETHYLDISULFIDE]		5.13		
OC/C=C/c1ccc(O)cc1	24	< 4.00		
O=C(O)/C=C/c1cccc(O)c1	3	< 4.00		
C=CC(OC(C)=O)c1ccccc1OC(C)=O (configuration not stated)		5.49		
CCC(OC(C)=O)c1ccccc1OC(C)=O (configuration not stated)		4.00		
O=C/C=C/c1ccc(O)cc1 [p-HYDROXYCINNAMALDEHYDE]		4.70		
CCCC(OC(C)=O)c1ccc(OC(C)=O)cc1 (configuration not stated)		4.33		
C=CC(O)c1ccc(OC)cc1 (configuration not stated)	-3	< 4.52	100	
CC(C)=O [ACETONE]				7.3
CCC(OC(C)=O)c1ccc(OC(C)=O)cc1 (configuration not stated)		5.00		
O=C(O)/C=C/c1ccccc1 [CINNAMIC ACID]	15	< 4.00		
COc1ccc(/C=C/C(=O)O)cc1 [4-METHOXYCINNAMIC ACID]	27	< 4.00		
CC(=O)OC/C=C/c1ccc(O)cc1		4.14		
C=CCc1ccc(O)cc1 [CHAVICOL]	43	< 4.00		
CC[C@H](O)c1ccccc1	-4	< 4.00		
